The subject of data set [1] is human coronary artery smooth muscle cells (HCASMCs). The experiment in a line: Prostaglandin production in HCASMCs with/without fatty acids and AdCOX-1 transfection, EIA (Example II). It counts as cell-based. To be noted: for PGE1/PGE2 ratio: fatty acid-stimulated naïve HCASMCs; for increase of PGE1 production by stimulation: naive HCASMCs vs no stimulation; for PGE1 production / PGE2 production / PGI2 production: naïve (nontransfected) HCASMCs, 20 μM fatty acid, 45 minutes.

The test system of data set [2] is balloon-injured carotid arteries of New Zealand White rabbits. It counts as in vivo, New Zealand White rabbit. As to conditions: no vector (PBS), 20 μM fatty acid stimulation. How it is done:
Balloon injury and local delivery of the COX-1 gene to carotid arteries of New Zealand White (NZW) rabbits were done according to a protocol approved by the animal committee at the University of Texas Houston Health Science Center. As described previously^31, rabbit anesthesia was performed prior to each surgery. In brief, a no. 4 catheter introducer was introduced into the right femoral artery of anesthetized rabbits. Heparin at a dose of 150 units/kg was then administered to prevent arterial thrombosis during angioplasty. A balloon catheter (2.5×20 mm, Baxter Healthcare Corporation) was inserted into the femoral introducer and advanced to the right carotid artery with the assist of a guide wire under fluoroscopy. Balloon angioplasty was performed using 5 inflations to 8 atm for 30 second each time. One minute reperfusion was allowed between inflations. After angioplasty, the balloon was retracted 15 mm, and the proximal end of the damaged artery was ligated over the tip of the deflated angioplasty catheter with 2-0 silk over umbilical tape, to prevent further injury. All blood was removed from the damaged artery by repeated flushing with saline through the wire port of the angioplasty catheter. Then the distal portion of the damaged artery was ligated. After removing the remaining saline, 1×10^10 PFU/ml AdCOX, Adnull or 1 ml of PBS were gradually introduced into the isolated artery, respectively. After incubating the virus in the artery for 30 min, the artery was flushed to remove virus or PBS and washed with saline. Finally, all incisions were repaired and the rabbits were monitored until they had recovered from anesthesia. Upon completing of surgery, the cut regions of rabbit were repaired and rabbits were recovered.
Balloon injury and local delivery of the COX-1 gene to carotid arteries of NZW rabbits (n=24) were performed as described above. Eight rabbits were treated with AdCOX, and a like number were respectively treated with Adnull and PBS.
Three days after local gene delivery, balloon-injured rabbits were sacrificed, and their carotid arteries were harvested as 2-cm-long artery rings. Each artery ring was cut open to expose the lumen and then into 6 small pieces. The pieces were washed 3 times with Dulbecco's modified Eagle's medium (DME; Invitrogen) and incubated with DMEM supplemented with 20 μM AA or DGLA and 2% FBS at 37° C. for 45 minutes. In each treatment group, 4 rabbits provided injured arteries for AA stimulation and 4 provided them for DGLA stimulation. Supernatants were collected and used for prostaglandin assays as described above. Each arterial piece was then dried and weighed.

Data set [3] relates to human aortic endothelial cells (HAECs). The experiment in a line: Prostaglandin production in HAECs with/without fatty acids and AdCOX-1 transfection, EIA (Example II). The data set is classed as cell-based. To be noted: for enhancement of PGI2 production: HAECs, fatty acid stimulation (Discussion); for PGE1/PGE2 ratio: fatty acid-stimulated naïve HAECs; for PGE1 production / PGE2 production / PGI2 production: naïve (nontransfected) HAECs, 20 μM fatty acid, 45 minutes.

Another data set deals with HCASMC. As to the kind of experiment: Western blot of COX-1 and COX-2 expression in HCASMC. It counts as cell-based, human. To be noted: normal HCASMC, 10 ng/ml for 24 hour. On the technique in general: In western blotting, separated proteins are transferred to a membrane and probed.
The test system of another data set is HAEC. The experiment in a line: Western blot of COX-1 and COX-2 expression in HAEC. It counts as cell-based, human. As to conditions: normal HAEC, 10 ng/ml for 24 hour.
For data set [4] the following is noted: clinical use; cited from earlier work.
Setting [5] is: naïve HCASMCs vs no stimulation.

Several values for one entry are separate records, joined by “and”; a condition that tells them apart may be missing. Equal values may be shown once.

Regarding `CCCCC/C=C\C/C=C\C/C=C\C/C=C\CCCC(=O)O` [AA, arachidonic acid], in data set [1] (AA-stimulated naïve HCASMCs), the “PGE1 production, times lower than in DGLA-stimulated counterparts” value is above 2 times. In data set [1], the PGE1/PGE2 ratio came to 0.27, the “increase of PGE1 production by stimulation” value (shortened to “increase of PGE1 production”) is reported as above 2 fold, the PGE1 production is on record as 14.04 ± 1.5 ng/10^6 cells and the PGE2 production is on record as 51.8 ± 2.46 ng/10^6 cells. The compound also yielded a PGI2 production in data set [1] of 37.12 ± 2.54 ng/10^6 cells. In data set [1] (setting [5]), the “increase of PGE2 production by stimulation” value is reported as around 2 fold and the “increase of PGI2 production by stimulation” value is around 3 fold. Besides, in data set [2], the PGE1 production came out at 31 ± 19 pg/mg arterial tissue, the PGE2 production was determined as 74 ± 42 pg/mg arterial tissue and the PGI2 production was 432 ± 135 pg/mg arterial tissue. Further, the “PGE1 production, times lower than in DGLA-stimulated counterparts” value in data set [3] (AA-stimulated naïve HAECs) is on record as above 4 times. For the same compound, in data set [3], the “enhancement of PGI2 production” value is 25%, the PGE1/PGE2 ratio came out at 0.16, the PGE1 production was 1.10 ± 0.41 ng/10^6 cells and the PGE2 production worked out at 6.17 ± 0.83 ng/10^6 cells. Also, in data set [3], the PGI2 production came to 2.70 ± 0.13 ng/10^6 cells. In data set [3] (naive HAECs vs no stimulation), the “increase of PGI2 production by stimulation (in words)” value is given as “one third”. For the same compound, in data set [3] (naïve HAECs vs no stimulation), the “increase of PGE2 production by stimulation” value is around 2 fold and the “suppression of PGE1 production by stimulation” value is recorded as around 24%.
“IL-1β: interleukin-1β, used to induce COX-2 in normal cells”: the “COX-2 induction (immunoblot)” value in the data set on HCASMC and in the data set with HAEC was “capable of prompting COX-2 induction” each time.
On to `CCCCC/C=C\C/C=C\C/C=C\CCCCCCC(=O)O` [DGLA, dihommo-γ-linolenic acid], for which, in data set [1], the PGE1/PGE2 ratio was 1.46 and 1.5; the “increase of PGE1 production” value was above 4 fold; the PGE1 production is on record as 32.34 ± 2.41 ng/10^6 cells; the PGE2 production worked out at 22.05 ± 1.45 ng/10^6 cells. In data set [1], this compound came in with a PGI2 production of 9.30 ± 1.09 ng/10^6 cells. Also, in data set [1] (setting [5]), the “lowering of PGI2 production by stimulation” value was 28% and the “suppression of PGE2 production by stimulation” value is listed as 35-50%. In data set [2], this compound had a PGE1 production of 47 ± 3.90 pg/mg arterial tissue, a PGE2 production of 51 ± 20 pg/mg arterial tissue and a PGI2 production of 443 ± 201 pg/mg arterial tissue. Moreover, in data set [3], the “enhancement of PGI2 production” value was found to be 5%; the PGE1/PGE2 ratio is 3.22 and 3; the PGE1 production turned out to be 5.00 ± 0.51 ng/10^6 cells; the PGE2 production is 1.55 ± 0.37 ng/10^6 cells. In addition, the PGI2 production in data set [3] was found to be 2.15 ± 0.33 ng/10^6 cells. For the same compound, in data set [3] (naive HAECs vs no stimulation), the “increase of PGE1 production” value was above 3 fold and the “increase of PGI2 production by stimulation (in words)” value is “only slightly”. Further, the “suppression of PGE2 production by stimulation” value in data set [3] (naïve HAECs vs no stimulation) is given as 35-50%.
For the compound `CCCCC(C)(O)C/C=C/[C@H]1[C@H](O)CC(=O)[C@@H]1CCCCCCC(=O)OC` (mixture of isomers) [Misoprostol], the “adverse side effects (including diarrhea and abdominal pain), patients affected” value in data set [4] was 14-40 % of patients.

The values are drawn from patent US20050130925A1, “Method and composition for enhancing PGE1 production in vascular endothelial and smooth muscle cells” (The Board of Regents of the University of Texas System, priority 2003, published 2005).
